In US5962415A, “Compositions comprising a peptide inhibitor of nuclear protein translocation and an immunosuppressant and methods of use thereof” (Bristol-Myers Squibb Co., priority 1998, dated 1999):

Legend:
[1] = test system: Splenic T-cells from BALB/c mice; assay: Mouse splenic T-cell proliferation ([3H]-thymidine); assay type: cell-based; conditions: 0.5 or 2.0 μM, FIG. 16
Protocol: Splenic T-cells from BALB/c mice were isolated by glass wool chromatography and treated with either 0.5 or 2.0 μM peptide in 96 well plates for 2 hours followed by activation with either anti-CD3 alone ([…]), PMA alone (1 ng/ml), anti-CD3 plus anti-CD28 ([…] each) or anti-CD28 plus PMA ([…] and 1 ng/ml, respectively). Plates were coated with antibody 24 hours prior to activation. Proliferation was determined after 72 hours by pulsing for 8 hours with [^3 H]-thymidine, and determining radioactivity incorporated into DNA.

CD14 = assay: LPS binding to CD14 (plate assay with soluble CD14 Ig); conditions: E. coli AO16 LPS, 2 hours at 4° C., FIG. 14
Protocol: 96-well plates were coated with goat-anti human Ig, soluble CD-1 4 Ig was added, and the plates were incubated overnight at 4° C. The BMS polypeptide, the C-MYCMEM polypeptide, an SV40 NLS polypeptide containing a single SV40 large T-antigen NLS, a c-myc NLS without a translocation sequence (AKRVKL (SEQ ID NO:6)), a control non-NLS polypeptide, 377G, or PBS, were added to the plates and the plates were incubated for 5 min. E. coli AO16 LPS was then added to the plates and the plates were incubated for 2 hours at 4° C. The plates were washed and LPS was detected using 0.5 μg/ml mouse anti-E. coli LPS, followed by goat anti-mouse horseradish peroxidase.

[2] = test system: BALB/c mice immunized with KLH; assay: Anti-hemocyanin (KLH) response in mice; assay type: in vivo; conditions: 5 mg/kg day 0 plus 5 doses every other day, serum day 14, FIG. 12
Protocol: Female BALB/c mice (8 weeks of age) were immunized by intraperitoneal injection of 25 μg keyhole limpet (Megathura crenulata) hemocyanin ("KLH") (Pacific Bio-Marine Laboratories, Venice, Calif.) without adjuvant on day 0. Mice were divided into groups of five and inhibitory peptides C-MYCMEM and BMS-205820 ([…] (SEQ ID NO:24)), which is identical to the SV40MEM polypeptide with the exception that the polypeptide lacks the C-terminal cysteine, were administered on day 0 at 5 mg/kg, followed by 5 subsequent doses of the same concentration every other day. Control mice were treated with a single 200-μg dose of Chimeric L6 antibody ("Chi L6"). After 14 days, the mice were bled from the orbital sinus and the level of anti-KLH antibodies were measured in the serum by ELISA as described in Example 11.

[3] = test system: 70Z/3 murine leukemia pre-B cells; assay: LPS-stimulated surface antigen expression (κ Ig light chain, IL-2 receptor, CD45) in 70Z/3 cells; assay type: cell-based; conditions: dose-response data, FIG. 1B
Protocol: Expression of κ Ig, CD45, CD40, and the interleukin-2 receptor was assayed using standard enzyme-linked immunosorbent assays ("ELISAs") (see, Coligan et al. (eds.) (1991) Current Protocols in Immunology, Wiley & Sons, p. 2.10 or by FACS staining to measure cell-surface markers as described in Raff (1970) Immunology 19:637). Antibodies form cell surface markers were obtained from Pharmingen Co.
The effect of the SV40MEM polypeptide was compared with two additional polypeptides, […] (SEQ ID NO:2) (the "HIV-1MEM" polypeptide), which is composed of the membrane translocation domain of FGF flanked by the NLS from the HIV-1 matrix protein and […] (SEQ ID NO:3) (the "C-MYCMEM" polypeptide), which contains the NLS from the human c-myc oncoprotein (Chelsky et al. (1989), supra, and Dang et al. (1988), supra) using murine 70Z/3 pre-B cells.
Murine 70Z/3 cells (ATCC TlD-158) are a model cell line for analyzing the effects of compounds on B-cell differentiation. In response to S. typhosa LPS (Difco) or γ-interferon, these cells differentiate from surface κ immunoglobulin negative to κ Ig positive.
[…] of: (1) a peptide containing only the FGF signal sequence AAVALLPAVLLALLAP (SEQ ID NO:4) (the "MEM" peptide); (2) a polypeptide having the FGF signal sequence and the NLS of NF-κB p50 on the carboxy terminus of the signal sequence, namely, the NF-κBMEM polypeptide; (3) the SV40MEM polypeptide comprised of L-amino acids; or (4) the SV40MEM polypeptide comprised of D-amino acids. The cells were then incubated with LPS as described in Example 2 and assayed for expression of κ light chain expression.

“AKRVKLAAVALLPAVLLALLAKRVKLC [C-MYCMEM, contains the NLS from the human c-myc oncoprotein]” was tested. Which T cell proliferation ([1]; stimulated with PMA + anti-CD28, 2 hours pretreatment) did it give?
Its T cell proliferation is “inhibited”.

What about the T cell proliferation ([1]; stimulated with anti-CD3 + anti-CD28, 2 hours pretreatment) of the same sequence?
The T cell proliferation was “augmentation of proliferation”.

What about the “binding of LPS to CD14” value (CD14) of the same sequence?
Its value is “block it from binding CD14”.

What about the “specific anti-KLH response” value [2] of the same sequence?
Its value is “inhibited”.

And the “efficacy at inhibiting κ Ig light chain production (comparison of three polypeptides)” value [3]?
Its value is “approximately equally efficacious”.

What about the “potency at inhibiting κ Ig light chain production compared with SV40MEM” value [3] of the same sequence?
Its value is “not as potent”.
